We go through 6 molecules from paper PMC5617738 (Toxicology Reports, 2016).

Data set [1] concerns HL-7702. Conditions: HL-7702 cells; cited from earlier work.
The subject of data set [2] is rodent. Conditions: cited from earlier work.
Data set [3] has as its system PBMCs. Conditions: read-out: IC50 (toxicity on PBMCs); cited from earlier work.
Data set [4] concerns murine macrophage cells. Conditions: cited from earlier work.
Data set [5] is described as follows: Solubility in test solution. The class given is physicochemical. Particulars: solution with a maximum of 1% DMSO.
In data set [6] the test system is Plasmodium berghei. Particulars: P. berghei infected mice, cited from earlier work.

Molecules are shown by their SMILES. Values after ≈ are worked out from the molar mass of the structure shown. Like-named read-outs stand apart in the source and are kept apart here.

In the case of `O=C1C=C(O)C(=O)c2ccccc21` [2-hydroxy-1,4-naphthoquinone], in data set [1], the “Relative cytotoxicity among six naphthoquinones” value is reported as “less toxic”. Also, the In vivo toxicity result in data set [2] is “highly toxic, causing both hemolytic anaemia and renal tubular necrosis”.
As to `Cc1cc(O)c2c(c1)C(=O)C(O)=CC2=O` [2,5-Dihydroxy-7-methyl-1,4-naphthoquinone], the half-maximal inhibitory concentration (IC50) in data set [3] is 54 µM.
Turning to `COc1cc(C=O)ccc1O` [vanillin], the IC50 in data set [4] was 645 µg/mL (≈ 4.24 mM).
On to `Cc1cc(O)c2c(c1F)C(=O)C=CC2=O` [8-Fluoro-5-hydroxy-7-methyl-1,4-naphthoquinone], for which the IC50 in data set [3] was 189 µM.
For `O=C1C(O)=C(Nc2ccccc2)C(=O)c2ccccc21` [4a, 2-hydroxy-3-anilino-1,4-naphthoquinone], the Solubility result in data set [5] is “soluble in the solution with a maximum of 1% DMSO”. Further, in data set [6] (vs untreated control), the “Parasitemia inhibition (%) Day 5” value was 53.3% and the “Parasitemia inhibition (%) Day 7” value is recorded as 18.5%. The “Mean Survival” value in data set [6] was 32.5 ± 6.6 days. Moreover, the “Parasitemia Day 5” value in data set [6] (first Parasitemia column) is 0.7. For the same molecule, in data set [6] (second Parasitemia column, head printed Day 5), the “Parasitemia Day 5” value was 2.2.
Turning to `Cc1cc(O)c2c(c1)C(=O)C=CC2=O` [7-MJ, 5-Hydroxy-7-methyl-1,4-naphthoquinone], the IC50 in data set [3] was 18.4 µM.
